This experiment has as its system Radical scavenging activity. Briefly: Antioxidant activity assessed as DPPH radical scavenging activity. The format is functional. In general terms: DPPH is a stable violet radical that fades when it is reduced.

These results are taken from ChEMBL document CHEMBL1156390, “Phyllanemblinins A-F, new ellagitannins from Phyllanthus emblica” (J Nat Prod, 2001).

Activity calls are given as the source filed them. The rule behind the calls is not given here.

On to `O=C(O)C[C@@H]1C(=O)O[C@H]2[C@@H]3OC(=O)c4cc(O)c(O)c(O)c4-c4c(cc(O)c(O)c4O)C(=O)OC[C@H]2O[C@@H](OC(=O)c2cc(O)c(O)c(O)c2)[C@@H]3OC(=O)c2cc(O)c(O)c3c2[C@H]1[C@H](O)C(=O)O3`, for which the outcome was Active. Next, `O=C(O)C[C@@H]1C(=O)O[C@H]2[C@@H]3OC(=O)c4cc(O)c(O)c(O)c4-c4c(cc(O)c(O)c4O)C(=O)OC[C@H]2O[C@@H](OC(=O)c2cc(O)c(O)c(O)c2)[C@@H]3OC(=O)c2cc(O)c(O)c3c2[C@H]1[C@@](O)(C(=O)O)O3`: “Active”.
